Source: patent publication US20260184692A1, “HETEROCYCLIC COMPOUNDS, PREPARATION METHODS AND USES THEREOF” (InventisBio Co., Ltd., priority 2022, published 2026)
pIC50: −log10 of the molar value.

System: not listed separately
Assay: Mouse PK Assay
Type: in vivo
Settings: plasma; male BALB/c mouse, IV

Row | SMILES | MRT [h]
1 | N#Cc1ccc(N2CC3(CCC4(CC4)CC3)c3cc(NS(=O)(=O)CCO)c(F)cc3C2=O)nc1N1CCC(F)(F)CC1 [Compound 75] | 8

Same assay, conditions: plasma; male BALB/c mouse, single oral dose 5 mg/kg; read-out: PO T1/2 (converted)

Row | SMILES | half-life [h]
2 | N#Cc1ccc(N2CC3(CCC4(CC4)CC3)c3cc(NS(=O)(=O)CCO)c(F)cc3C2=O)nc1N1CCC(F)(F)CC1 [Compound 75] | 6.3

System: OVCAR3 Cells
Assay: OVCAR3 Cell Viability Assay (CellTiter-Glo)
Type: cell-based
Settings: Homo sapiens, OVCAR-3, 144 h, 6 days incubation, read-out: OVCAR3 CTG IC50
Experimental: (§1) OVCAR3 Cells (ATCC, Cat #HTB-161) were seeded at a density of 2000 cells/well in a 96-well clear bottom plate (Greiner, Cat #655098) in 100 μL of complete media (RPMI1640+20% FBS+0.01 mg/mL human insulin). One hundred microliter of complete media was added into the blank well (column 1) for low control. Cells were allowed to adhere to the plate overnight in the incubator at 37° C., 5% CO2. On the following day, 0.5 μL of serially-diluted compounds were added to the cells (columns 2-10) and incubated for 6 days at 37 C, 5% CO2 (final 0.5% DMSO concentration); 0.5 μL of DMSO solution was added into the wells (column 11) for high control. Cell viability was detected according to the CellTiter-Glo Luminescent Cell Viability Assay Kit (Promega, Cat #G7573). Luminescence was recorded on the Tecan Spark plate reader. Inhibition rate (IR) of the tested compounds was determined by the following formula: IR (%)=(1−(RLUcompound−RLUlow control)/(RLUhigh control−RLUlow control))×100%. The IC50 value was calculated using the non-linear regression equation: Y=Bottom+(Top−Bottom)/(1+10^((Log IC50−X)×HillSlope)), where X is Log of compound concentration, Y is percent inhibition (IR (%)), Top and Bottom are plateaus in same units as Y.

Row | SMILES | pIC50
3 | O=C(Nc1ccc2c(c1)ncn2CC(F)(F)F)c1ccc(NS(=O)(=O)CCO)cc1N1CCC2(CC1)CC2 [Compound 3] | < 5.70
4 | Cc1cc(NC(=O)c2ccc(NS(=O)(=O)CCO)cc2C2=CCC3(CC2)CC3)nc(N2CCC(F)(F)CC2)n1 [Compound 6] | > 6.70
5 | CN(c1cccc(N2CC3(CCC4(CC4)CC3)c3cc(NS(=O)(=O)CCO)ccc3C2=O)n1)C1CC(F)(F)C1 [Compound 34] | > 6.70
6 | O=C1c2ccc(NS(=O)(=O)CCO)cc2C2(CCC3(CC3)CC2)CN1c1ccnc(N2CCC(F)(F)C2)n1 [Compound 12] | 5.70 to 6.70
7 | Cn1ccc(-c2ccc(N3CC4(CCC5(CC5)CC4)c4cc(NS(=O)(=O)CCO)ccc4C3=O)nc2N2CCC(F)(F)CC2)n1 [Compound 142] | > 6.70
8 | N#Cc1ccc(N2CC3(CCC4(CCC4)CC3)c3cc(NS(=O)(=O)CCO)ccc3C2=O)nc1NC1CC(F)(F)C1 [Compound 115] | > 6.70
9 | O=C1c2ccc(NS(=O)(=O)CCO)cc2C2(CCC3(CC3)CC2)CN1c1ccnc(NC2CCCC2)n1 [Compound 66] | > 6.70
10 | O=C1c2ccc(NS(=O)(=O)CCO)cc2C2(CCC3(CC3)CC2)CN1c1ccc(F)c(N2CCCC(F)(F)CC2)n1 [Compound 47] | > 6.70
11 | O=C1c2ccc(NS(=O)(=O)CCO)nc2C2(CCC3(CC3)CC2)CN1c1ccnc(N2CCC(F)(F)CC2)n1 [Compound 68] | < 5.70
12 | N#Cc1ccc(N2CC3(CCC4(CC4)CC3)c3cc(NS(=O)(=O)C(F)(F)F)ccc3C2=O)nc1N1CCC(F)(F)CC1 [Compound 159] | 5.70 to 6.70
13 | O=C1c2ccc(NS(=O)(=O)CCO)cc2C2(CCC3(CC3)CC2)CN1c1ccc(C(F)F)c(N2CCC(F)(F)CC2)n1 [Compound 149] | > 6.70
14 | CC1(C)CCC2(CC1)CN(c1ccnc(NC3CC(F)(F)C3)n1)C(=O)c1ccc(NS(=O)(=O)CCO)cc12 [Compound 74] | > 6.70
15 | CN(c1nc(N2CC3(CCC4(CC4)CC3)c3cc(NS(=O)(=O)CCO)ccc3C2=O)ccc1C#N)C1CC(F)(F)C1 [Compound 49] | > 6.70
16 | O=C1c2ccc(NS(=O)(=O)CCO)cc2C2(CCC3(CC3)CC2)CN1c1ccc(F)c(OC2CC(F)(F)C2)n1 [Compound 61] | 5.70 to 6.70
17 | COc1ccc(N2CC3(CCC4(CC4)CC3)c3cc(NS(=O)(=O)CCN(C)C)ccc3C2=O)nc1N1CCC(F)(F)CC1 [Compound 153] | 5.70 to 6.70
18 | O=C1c2cc(F)c(NS(=O)(=O)CCO)cc2C2(CCC3(CC3)CC2)CN1c1ccnc(NC2CC(F)(F)C2)n1 [Compound 65] | 5.70 to 6.70
19 | Cn1ccc(-c2ccc(N3CC4(CCC5(CC5)CC4)c4cc(NS(=O)(=O)CCO)ccc4C3=O)nc2NC2CC(F)(F)C2)n1 [Compound 170] | 5.70 to 6.70
20 | CN(c1nccc(N2CC3(CCC4(CC4)CC3)c3cc(NS(=O)(=O)CCO)ccc3C2=O)n1)C1CCC(F)(F)C1 (stereo not drawn) [Compound 50] | 5.70 to 6.70
21 | O=C1c2ccc(NS(=O)(=O)CCO)cc2C2(CCC3(CC3)CC2)CN1c1cncc(N2CCC(F)(F)CC2)n1 [Compound 54] | > 6.70
22 | O=C1c2cc(F)c(NS(=O)(=O)CCO)cc2C2(CCC3(CC3)CC2)CN1c1ccnc(N2CCC(F)(F)CC2)n1 [Compound 41] | 5.70 to 6.70
23 | O=C1c2ccc(NS(=O)(=O)CCO)cc2C2(CCC3(CCC3)CC2)CN1c1ccnc(NC2CC(F)(F)C2)n1 [Compound 124] | > 6.70
24 | O=C1c2ccc(NS(=O)(=O)CCO)cc2C2(CCC3(CC3)CC2)CN1c1ccc2c(n1)N1CCC(F)(F)CC1CO2 (stereo not drawn) [Compound 31] | 5.70 to 6.70
25 | N#Cc1ncc(N2CC3(CCC4(CC4)CC3)c3cc(NS(=O)(=O)CCO)ccc3C2=O)nc1N1CCC(F)(F)CC1 [Compound 157] | > 6.70
26 | CC1(F)CCN(c2nc(N3CC4(CCC5(CC5)CC4)c4cc(NS(=O)(=O)CCO)ccc4C3=O)ccc2F)CC1 [Compound 40] | > 6.70

Row | SMILES | pIC50
27 | O=C1c2ccc(NS(=O)(=O)CCO)cc2C2(CCC3(CC3)CC2)CN1c1cccc(N2CCC3CC32)n1 (stereo not drawn) [Compound 26] | 5.70 to 6.70
28 | CN1CCN(C(=O)c2ccc(N3CC4(CCC5(CC5)CC4)c4cc(NS(=O)(=O)CCO)ccc4C3=O)nc2N2CCC(F)(F)CC2)CC1 [Compound 172] | 5.70 to 6.70
29 | CCc1ccc(N2CC3(CCC4(CC4)CC3)c3cc(NS(=O)(=O)CCO)ccc3C2=O)nc1N1CCC(F)(F)CC1 [Compound 150] | > 6.70
30 | CN1CCC(c2ccc(N3CC4(CCC5(CC5)CC4)c4cc(NS(=O)(=O)CCO)ccc4C3=O)nc2N2CCC(F)(F)CC2)CC1 [Compound 179] | 5.70 to 6.70
31 | N#Cc1ccc(N2CC3(CCC(F)(F)CC3)c3cc(NS(=O)(=O)CCO)c(F)cc3C2=O)nc1N1CCC(F)(F)CC1 [Compound 126] | > 6.70
32 | Cc1cc(-c2ccc(N3CC4(CCC5(CC5)CC4)c4cc(NS(=O)(=O)CCO)ccc4C3=O)nc2N2CCC(F)(F)CC2)ccn1 [Compound 164] | > 6.70
33 | CN(C)CCS(=O)(=O)Nc1ccc2c(c1)C1(CCC3(CC3)CC1)CN(c1ccc(C#N)c(N3CCC(F)(F)CC3)n1)C2=O [Compound 147] | 5.70 to 6.70
34 | O=C1c2ccc(NS(=O)(=O)C(F)(F)F)cc2C2(CCC3(CC3)CC2)CN1c1ccnc(NC2CC(F)(F)C2)n1 [Compound 156] | < 5.70
35 | O=C(Nc1ccc2ncn(CC(F)(F)F)c2c1)c1ccc(NS(=O)(=O)CCO)cc1N1CCC2(CC1)CC2 [Compound 2] | > 6.70
36 | CC(C)(C)NS(=O)(=O)c1cccc(N2CC3(CCC4(CC4)CC3)c3cc(NS(=O)(=O)CCO)ccc3C2=O)c1 [Compound 113] | > 6.70
37 | Cc1cc(NC(=O)c2ccc(NS(=O)(=O)CCO)cc2N2CC3CCC(C2)O3)nc(N2CCC(F)(F)CC2)n1 [Compound 10] | 5.70 to 6.70
38 | Cc1ncc(N2CC3(CCC4(CC4)CC3)c3cc(NS(=O)(=O)CCO)ccc3C2=O)nc1N1CCC(F)(F)CC1 [Compound 73] | > 6.70
39 | CC1(F)CCC2(CC1)CN(c1ccnc(NC3CC(F)(F)C3)n1)C(=O)c1ccc(NS(=O)(=O)CCO)cc12 (stereo not drawn) [Compound 112] | 5.70 to 6.70
40 | Cc1ncc(-c2ccc(N3CC4(CCC5(CC5)CC4)c4cc(NS(=O)(=O)CCO)ccc4C3=O)nc2N2CCC(F)(F)CC2)cn1 [Compound 160] | > 6.70
41 | CC(C)[C@H](N)C(=O)OCCS(=O)(=O)Nc1ccc2c(c1)C1(CCC3(CC3)CC1)CN(c1ccc(C#N)c(N3CCC(F)(F)CC3)n1)C2=O [Compound 132] | > 6.70
42 | N#Cc1ccc(N2CC3(CCC4(CC4)CC3)c3cc(NS(=O)(=O)CCO)ccc3C2=O)nc1C(=O)N1CCCC1 [Compound 122] | 5.70 to 6.70
43 | CCNC(=O)c1ccc(N2CC3(CCC4(CC4)CC3)c3cc(NS(=O)(=O)CCO)ccc3C2=O)nc1NC1CC(F)(F)C1 [Compound 162] | > 6.70
44 | O=C1c2ccc(NS(=O)(=O)CCO)cc2C2(CCC3(CC3)CC2)CN1c1ccnc(N2CC3CCC2C3)n1 (stereo not drawn) [Compound 82] | 5.70 to 6.70
45 | N#Cc1ccc(N2CC3(CCC4(CC4)CC3)c3cc(NS(=O)(=O)CCO)ccc3C2=O)nc1NCCC(F)(F)F [Compound 93] | > 6.70
46 | O=C1c2ccc(NS(=O)(=O)CCO)cc2C2(CCC3(CC3)CC2)CN1c1cccc(NC2CC(F)(F)C2)n1 [Compound 48] | > 6.70
47 | CCS(=O)(=O)Nc1ccc2c(c1)C1(CCC3(CC3)CC1)CN(c1ccc(C#N)c(S(=O)(=O)N3CC(F)(F)C3)c1)C2=O [Compound 118] | > 6.70
48 | CC1(F)CCC2(CC1)CN(c1ccc(C#N)c(N3CCC(F)(F)CC3)n1)C(=O)c1ccc(NS(=O)(=O)CCO)cc12 (stereo not drawn) [Compound 105] | > 6.70
49 | O=C1c2ccc(NS(=O)(=O)CCO)cc2C2(CCC3(CC3)CC2)CN1c1csc(N2CCC(F)(F)CC2)n1 [Compound 36] | < 5.70
50 | Cn1cc(-c2ccc(N3CC4(CCC5(CC5)CC4)c4cc(NS(=O)(=O)CCO)ccc4C3=O)nc2NC2CC(F)(F)C2)cn1 [Compound 163] | > 6.70

System: HCC1806 Cells
Assay: HCC1806 Cell Viability Assay (CellTiter-Glo)
Type: cell-based
Settings: Homo sapiens, 144 h, 6 days incubation, read-out: HCC1806 CTG IC50
Experimental: as §1, with “HCC1806 Cells” for “OVCAR3 Cells”, “Cat #CRL-2335)” for “Cat #HTB-161)”, “of 500” for “of 2000”, “media (RPMI1640+10% FBS).” for “media (RPMI1640+20% FBS+0.01 mg/mL human insulin).”, “blank wells” for “blank well”, “at 37° C.,” for “at 37 C,”

Row | SMILES | pIC50
51 | CN1CCOc2ccc(NC(=O)c3ccc(NS(=O)(=O)CCO)cc3N3CCC4(CC3)CC4)nc21 [Compound 7] | < 5.70
52 | O=C(Nc1ccc2c(c1)ncn2CC(F)(F)F)c1ccc(NS(=O)(=O)CCO)cc1N1CCC2(CC1)CC2 [Compound 3] | < 5.70
53 | Cc1cc(NC(=O)c2ccc(NS(=O)(=O)CCO)cc2C2=CCC3(CC2)CC3)nc(N2CCC(F)(F)CC2)n1 [Compound 6] | > 6.70
54 | CN(c1cccc(N2CC3(CCC4(CC4)CC3)c3cc(NS(=O)(=O)CCO)ccc3C2=O)n1)C1CC(F)(F)C1 [Compound 34] | > 6.70
55 | O=C1c2ccc(NS(=O)(=O)CCO)cc2C2(CCC3(CC3)CC2)CN1c1ccnc(N2CCC(F)(F)C2)n1 [Compound 12] | 5.70 to 6.70
56 | O=C1c2ccc(NS(=O)(=O)CCO)cc2C2(CCC3(CC3)CC2)CN1c1ccc2c(n1)N1CCC(F)(F)CC1CO2 (stereo not drawn) [Compound 31] | 5.70 to 6.70
57 | O=C1c2ccc(NS(=O)(=O)CCO)cc2C2(CCC3(CC3)CC2)CN1c1cccc(N2CCC3CC32)n1 (stereo not drawn) [Compound 26] | 5.70 to 6.70
